In patent publication US20260138978A1, “POSITIVE ALLOSTERIC MODULATORS OF THE MUSCARINIC ACETYLCHOLINE RECEPTOR M1” (Vanderbilt University, priority 2022, published 2026):

Experiments:
human mAChRM1 [1] = target: T1, human mAChRM1 (Homo sapiens, UniProt P11229); experiment: mAChR M1 cell-based functional assay (calcium mobilization), positive allosteric modulator activity: increase in the EC20 acetylcholine response; conditions: for Emax: PAM mode; for EC50: increase in the EC20 acetylcholine response, read-out: PAM Activity Human M1 EC50
T1 construct: host or cells: CHO-K1
T1 sequence (P11229 1-460): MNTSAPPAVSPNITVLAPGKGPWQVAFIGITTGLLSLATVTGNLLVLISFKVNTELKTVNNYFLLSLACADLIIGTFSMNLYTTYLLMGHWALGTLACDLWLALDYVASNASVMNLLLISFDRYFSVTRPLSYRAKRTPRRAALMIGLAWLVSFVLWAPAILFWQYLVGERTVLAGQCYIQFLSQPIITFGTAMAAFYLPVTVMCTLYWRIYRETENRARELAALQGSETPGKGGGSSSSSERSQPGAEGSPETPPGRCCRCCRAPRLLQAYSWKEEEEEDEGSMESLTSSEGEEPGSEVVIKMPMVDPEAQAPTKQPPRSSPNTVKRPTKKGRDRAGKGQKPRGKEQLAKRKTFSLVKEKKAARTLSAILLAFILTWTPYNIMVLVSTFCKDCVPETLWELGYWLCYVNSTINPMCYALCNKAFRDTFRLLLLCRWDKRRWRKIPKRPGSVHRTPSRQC
Summary of the method: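 CHO-K1 cells stably expressing human M1, loaded with Fluo-4 AM; calcium flux recorded on FDSS at 1 Hz over 300 s following compound addition. PAM activity is the concentration-dependent increase of an EC20 acetylcholine response; EC50 and Emax from four-parameter logistic fits of 11-point, 1:3 concentration series.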

human mAChRM1 [2] = target: T1, human mAChRM1; experiment: mAChR M1 cell-based functional assay (calcium mobilization), agonist activity upon compound addition, Emax relative to acetylcholine maximum; conditions: for Agonist Activity Human M1 EC50 / EC50: calcium mobilization upon compound addition; for Emax: relative to the maximum for acetylcholine
Summary of the method: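 CHO-K1 cells stably expressing human M1 were loaded with Fluo-4 AM for 50 min at 37 °C. Compound was added 4 s into a 300 s FDSS read at 1 Hz, over 11-point 1:3 dilution curves. Agonism was taken as a concentration-dependent rise in calcium fluorescence ratio, with Emax expressed relative to the acetylcholine maximum from four-parameter logistic fits.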

| Compound | Emax (human mAChRM1 [1]) | EC50 (human mAChRM1 [1]) | Agonist Activity Human M1 EC50 (human mAChRM1 [2]) | EC50 (human mAChRM1 [2]) | Emax (human mAChRM1 [2]) |
| --- | --- | --- | --- | --- | --- |
| COc1cc(-c2ccc(C(C)(C)O)cc2)cc(F)c1CN1Cc2cccnc2C1=O [Compound 119, 6-((3-fluoro-4′-(2-hydroxypropan-2-yl)-5-methoxy-[1,1′-biphenyl]-4-yl)methyl)-5,6-dihydro-7H-pyrrolo[3,4-b]pyridin-7-one] | 58% | ≥ 10000 nM | inactive | – | – |
| CC(C)(O)c1ccc(-c2cc(F)c(CN3Cc4cccnc4C3=O)c(Cl)c2)cc1 [Compound 120, 6-((3-chloro-5-fluoro-4′-(2-hydroxypropan-2-yl)-[1,1′-biphenyl]-4-yl)methyl)-5,6-dihydro-7H-pyrrolo[3,4-b]pyridin-7-one] | 66% | 3700 nM | inactive | – | – |
| Cn1cc2c(-c3cc(F)c(CN4Cc5cccnc5C4=O)c(F)c3)ccc(C(C)(C)O)c2n1 [Compound 121, 6-(2,6-difluoro-4-(7-(2-hydroxypropan-2-yl)-2-methyl-2H-indazol-4-yl)benzyl)-5,6-dihydro-7H-pyrrolo[3,4-b]pyridin-7-one] | 88% | 201 nM | – | ≥ 10000 nM | 22% |
| Cn1cc2c(-c3cc(F)c(CN4Cc5cccnc5C4=O)c(Cl)c3)ccc(C(C)(C)O)c2n1 [Compound 122, 6-(2-Chloro-6-fluoro-4-(7-(2-hydroxypropan-2-yl)-2-methyl-2H-indazol-4-yl)benzyl)-5,6-dihydro-7H-pyrrolo[3,4-b]pyridin-7-one] | 86% | 231 nM | – | ≥ 10000 nM | 20% |
| Cc1cc(-c2ccc(C(C)(C)O)c3nn(C)cc23)cc(F)c1CN1Cc2cccnc2C1=O [Compound 123, 6-(2-fluoro-4-(7-(2-hydroxypropan-2-yl)-2-methyl-2H-indazol-4-yl)-6-methylbenzyl)-5,6-dihydro-7H-pyrrolo[3,4-b]pyridin-7-one] | 84% | 124 nM | – | ≥ 10000 nM | 34% |
| Cn1cc2c(-c3cnc(CN4Cc5cccnc5C4=O)c(F)c3)ccc(C(C)(C)O)c2n1 [Compound 124, 6-((3-fluoro-5-(7-(2-hydroxypropan-2-yl)-2-methyl-2H-indazol-4-yl)pyridin-2-yl)methyl)-5,6-dihydro-7H-pyrrolo[3,4-b]pyridin-7-one] | 84% | 1870 nM | inactive | – | – |
| CN(C)c1cc(-c2ccc(C(C)(C)O)c3nn(C)cc23)cc(F)c1CN1Cc2cccnc2C1=O [Compound 125, 6-(2-(dimethylamino)-6-fluoro-4-(7-(2-hydroxypropan-2-yl)-2-methyl-2H-indazol-4-yl)benzyl)-5,6-dihydro-7H-pyrrolo[3,4-b]pyridin-7-one] | 77% | ≥ 10000 nM | inactive | – | – |
| COCCOc1cc(-c2ccc(C(C)(C)O)c3nn(C)cc23)cc(F)c1CN1Cc2cccnc2C1=O [Compound 126, 6-(2-fluoro-4-(7-(2-hydroxypropan-2-yl)-2-methyl-2H-indazol-4-yl)-6-(2-methoxyethoxy)benzyl)-5,6-dihydro-7H-pyrrolo[3,4-b]pyridin-7-one] | 83% | 61 nM | – | 3730 nM | 54% |
| CC(C)(O)c1ccc(-c2ccc(CN3Cc4cccnc4C3=O)c(F)c2)cc1 [Compound 127, 6-((3-fluoro-4′-(2-hydroxypropan-2-yl)-[1,1′-biphenyl]-4-yl)methyl)-5,6-dihydro-7H-pyrrolo[3,4-b]pyridin-7-one] | 81% | 4530 nM | inactive | – | – |
| CC(C)(O)c1ccc(-c2ccc(CN3Cc4cccnc4C3=O)cc2)cc1 [Compound 128, 6-((4′-(2-hydroxypropan-2-yl)-[1,1′-biphenyl]-4-yl)methyl)-5,6-dihydro-7H-pyrrolo[3,4-b]pyridin-7-one] | 57% | 7140 nM | inactive | – | – |
| Cc1cc(-c2ccc(C(C)(C)O)cc2)ccc1CN1Cc2cccnc2C1=O [Compound 129, 6-((4′-(2-hydroxypropan-2-yl)-3-methyl-[1,1′-biphenyl]-4-yl)methyl)-5,6-dihydro-7H-pyrrolo[3,4-b]pyridin-7-one] | 65% | ≥ 10000 nM | inactive | – | – |
| Cn1cc2c(-c3ccc(CN4Cc5cccnc5C4=O)c(F)c3)ccc(C(C)(C)O)c2n1 [Compound 130, 6-(2-fluoro-4-(7-(2-hydroxypropan-2-yl)-2-methyl-2H-indazol-4-yl)benzyl)-5,6-dihydro-7H-pyrrolo[3,4-b]pyridin-7-one] | 88% | 251 nM | – | 7490 nM | 12% |
| Cn1cc2c(-c3ccc(CN4Cc5cccnc5C4=O)cc3)ccc(C(C)(C)O)c2n1 [Compound 131, 6-(4-(7-(2-hydroxypropan-2-yl)-2-methyl-2H-indazol-4-yl)benzyl)-5,6-dihydro-7H-pyrrolo[3,4-b]pyridin-7-one] | 92% | 825 nM | inactive | – | – |
| Cc1cc(-c2ccc(C(C)(C)O)c3nn(C)cc23)ccc1CN1Cc2cccnc2C1=O [Compound 132, 6-(4-(7-(2-hydroxypropan-2-yl)-2-methyl-2H-indazol-4-yl)-2-methylbenzyl)-5,6-dihydro-7H-pyrrolo[3,4-b]pyridin-7-one] | 87% | 499 nM | – | ≥ 10000 nM | 14% |
| Cn1cc2c(-c3cc(F)c(CN4Cc5cccnc5C4=O)c(C4CC4)c3)ccc(C(C)(C)O)c2n1 [Compound 133, 6-(2-cyclopropyl-6-fluoro-4-(7-(2-hydroxypropan-2-yl)-2-methyl-2H-indazol-4-yl)benzyl)-5,6-dihydro-7H-pyrrolo[3,4-b]pyridin-7-one] | 79% | 61 nM | – | 4420 nM | 72% |
| Cn1cc2c(-c3cc(Cl)c(CN4Cc5cccnc5C4=O)c(C4CC4)c3)ccc(C(C)(C)O)c2n1 [Compound 134, 6-(2-chloro-6-cyclopropyl-4-(7-(2-hydroxypropan-2-yl)-2-methyl-2H-indazol-4-yl)benzyl)-5,6-dihydro-7H-pyrrolo[3,4-b]pyridin-7-one] | 76% | 1310 nM | – | 9050 nM | 60% |
| Cn1cc2c(-c3cc(F)c(CN4Cc5cccnc5C4=O)c(N4CCC4)c3)ccc(C(C)(C)O)c2n1 [Compound 135, 6-(2-(azetidin-1-yl)-6-fluoro-4-(7-(2-hydroxypropan-2-yl)-2-methyl-2H-indazol-4-yl)benzyl)-5,6-dihydro-7H-pyrrolo[3,4-b]pyridin-7-one] | 80% | 1030 nM | – | ≥ 10000 nM | 23% |
| Cn1cc2c(-c3cc(F)c(CN4Cc5cccnc5C4=O)c(C4CCCC4)c3)ccc(C(C)(C)O)c2n1 [Compound 136, 6-(2-cyclopentyl-6-fluoro-4-(7-(2-hydroxypropan-2-yl)-2-methyl-2H-indazol-4-yl)benzyl)-5,6-dihydro-7H-pyrrolo[3,4-b]pyridin-7-one] | 86% | 648 nM | – | 9680 nM | 21% |
| CC(C)(O)c1ccc(-c2cc(F)c(CN3Cc4nccnc4C3=O)c(F)c2)cc1 [Compound 137, 6-((3,5-difluoro-4′-(2-hydroxypropan-2-yl)-[1,1′-biphenyl]-4-yl)methyl)-6,7-dihydro-5H-pyrrolo[3,4-b]pyrazin-5-one] | 60% | 5040 nM | inactive | – | – |
| Cn1cc2c(-c3cc(F)c(CN4Cc5nccnc5C4=O)c(F)c3)ccc(C(C)(C)O)c2n1 [Compound 138, 6-(2,6-Difluoro-4-(7-(2-hydroxypropan-2-yl)-2-methyl-2H-indazol-4-yl)benzyl)-6,7-dihydro-5H-pyrrolo[3,4-b]pyrazin-5-one] | 67% | 281 nM | – | ≥ 10000 nM | 17% |
| Cn1cc2c(-c3cc(F)c(CN4Cc5ncncc5C4=O)c(F)c3)ccc(C(C)(C)O)c2n1 [Compound 139, 6-(2,6-difluoro-4-(7-(2-hydroxypropan-2-yl)-2-methyl-2H-indazol-4-yl)benzyl)-6,7-dihydro-5H-pyrrolo[3,4-d]pyrimidin-5-one] | 87% | 80 nM | – | 3780 nM | 46% |
| Cn1cc2c(-c3cc(F)c(CN4Cc5ccncc5C4=O)c(F)c3)ccc(C(C)(C)O)c2n1 [Compound 140, 2-(2,6-difluoro-4-(7-(2-hydroxypropan-2-yl)-2-methyl-2H-indazol-4-yl)benzyl)-1,2-dihydro-3H-pyrrolo[3,4-c]pyridin-3-one] | 76% | 84 nM | – | 5640 nM | 41% |
| CC(C)(O)c1ccc(-c2cc(F)c(CN3Cc4ccncc4C3=O)c(F)c2)cc1 [Compound 141, 2-((3,5-difluoro-4′-(2-hydroxypropan-2-yl)-[1,1′-biphenyl]-4-yl)methyl)-1,2-dihydro-3H-pyrrolo[3,4-c]pyridin-3-one] | 79% | 1010 nM | inactive | – | – |
